Holding throughout (assay type): in vivo, rat
The test system of one assay is PGE2. Description: Mucosal content of PGE2 (radioimmunoassay). The method, then:
A part of fundic mucosa (about 100 mg) was excised for determination of PGE2 synthesis. The samples were weighed, finely minced with scissors for 15 sec, then suspended in 1.0 ml of 10 mM sodium phosphate buffer (pH 7.4). The samples were then incubated in a shaking bath (37°) for 29 min followed by centrifugation (9000 g for 30 sec). The supernatant was frozen and subsequent determination of PGE2 was performed by radioimmunoassay using PGE2 [125I] RIA kit (Dupont/NEN, Boston, Mass., USA).

For the next assay, the system named is TNF-α. The assay can be described thus: Gastric mucosal concentration of TNF-α after aspirin (ELISA). The conditions noted are these: rats, gastric mucosa, 3 h after aspirin. Here is the method:
(§1) One hundred milligrams of scraped mucosa was homogenized for 30 sec with a polytron homogenizer (PT 1200, KInematica AG, Littau, Switzerland) in 1.0 ml of ice-cold potassium phosphate buffer (pH 7.4). Following centrifugation at 10,000 g for 10 minutes, aliquots of homogenate supernatants in PBS were obtained by centrifugation (10,000 g for 10 minutes). The total protein was measured by Bradford's method. The concentration of TNF-α and IL-1β in the supernatant of mucosal homogenates was determined by ELISA (R&D systems Inc., Minneapolis, Minn., USA) according to the manufacture's instruction. After color development, optimal density was measured with microplate reader. The concentration of TNF-α and IL-1β were expressed as pictogram/mg protein.
A general note: In an ELISA, binding on a coated surface is turned into a signal by an enzyme label.

A further assay concerns myeloperoxidase (MPO). Description: Myeloperoxidase (MPO) concentration in the gastric mucosa after aspirin. The settings on record: rats, 3 h after aspirin, normal 2.8±0.2, vehicle 13.8±1.2, P<0.001. Here is the method: An assay of gastric mucosal myeloperoxidase concentration was applied to quantify the degree of neutrophil infiltration. Three hundred milligrams of scraped mucosa was homogenized for 30 sec with a polytron homogenizer (PT 1200, KInematica AG, Littau, Switzerland) in 1.0 ml of ice-cold 0.5% hexadecyliltrimethylammonium bromide in 50 mM phosphate buffer (pH 6.0). Hexadecyliltrimethylammonium bromide is used to negate the pseudoperoxidase activity of hemoglobin and to solubilize membrane-bound MPO. The homogenate was sonicated (U50 IKA Werke Grm1H and Co. KG, Staufen, Germany) for 10 seconds, freeze-thawed three times and centrifuged for 20 minutes at 18,000 g. The supernatant was taken for determination of the enzyme activity utilizing an ELISA kit (Bioxytech, Oxis International, Inc. Portland, Oreg., USA). The change in absorbance at 405 nm was measured with a spectrophotometer (Microplate reader model 3550, Bio-Rad, Hercules, Calif., USA). The concentration of myeloperoxidase was expressed as nanogram per mg protein measured using Bradford's method.

Assay [1] relates to Aspirin-induced gastric injury. The assay can be described thus: Aspirin-induced gastric mucosal injury model (ulcer index). The conditions noted are these: rats, 3 h after aspirin, control 29.8±7.7. Here is the method: Male Sprague-Dawley rats weighting 250-300 g were fed a standard laboratory diet and water ad libitum, and kept in cages in a temperature and humidity controlled room with a 12 hour dark-light cycle before and during the experiment. Prior to administration of aspirin, animals were deprived of food for 24 hours but had free access to water. This experimental protocol was approved by the Akita University Animal Care Committee. Aspirin-induced gastric injury was produced by intragastric administration of aspirin (200 mg/kg) and HCl (0.15 N, 8 ml/kg). ATL-146e (2.5 or 5 μg/kg, n=5 in each dose) or vehicle was injected intraperitoneally 30 minutes prior to aspirin administration. The animals were sacrificed by stunning and cervical dislocation 3 hours after aspirin administration and the stomach was removed. Gastric mucosal lesions were measured by two independent observers blinded to the treatment. The ulcer index was calculated as the sum of the lengths of all lesions.

Another assay concerns IL-1β. The assay can be described thus: Gastric mucosal concentration of IL-1β after aspirin (ELISA). The conditions noted are these: rats, gastric mucosa, 3 h after aspirin. Here is the method:
as §1

Another assay has as its system gastric acid secretion. The assay can be described thus: Gastric secretion, pylorus-ligation method. The conditions noted are these: rats, 5 μg/kg i.p., 3 h. The method, then: Gastric juice was collected using the pylorus-ligation method. Briefly, rats were fasted for 24 hours, placed in restraint cages, and injected intraperitoneal with 5 μg/kg of ATL-146e. Thirty minutes after injection, pylorus ligation was performed. The stomach was removed 3 hours after pylorus ligation, and the gastric contents were collected. Following centrifugation the acid content of the supernatant was determined by titration with 0.01 mol NaOH to pH 7.0 using pH meter (f50 pH Meter; Beckman, Tokyo, Japan), and used to calculate gastric acid secretion in mEq/3 h.

In the case of `CC(=O)Oc1ccccc1C(=O)O` [aspirin, acetylsalicylic acid], the “reduction of PGE2 concentration vs vehicle-treated rats” value with PGE2 (aspirin 200 mg/kg alone, P<0.05) came to 82.3%. Besides, the “concentration of PGE2 in gastric mucosa” value in the assay on PGE2 (rats, aspirin 200 mg/kg alone (group C), vehicle-treated 255.3±64.7) was 47.4 ± 5.6 ng/g.

Turning to `CCNC(=O)C1OC(n2cnc3c(N)nc(C#CCC4CCC(C(=O)OC)CC4)nc32)C(O)C1O` (stereo not shown) [ATL-146e, 4-{3-[6-Amino-9-(5-ethylcarbamoyl-3,4-dihydroxy-tetrahydro-furan-2-yl)-9H-purin-2-yl]-prop-2-ynyl}-cyclohexanecarboxylic acid methyl ester], the results for the “reduction of the increase in TNF-α above control levels caused by aspirin” value with TNF-α (2.5 μg/kg) and in the assay on TNF-α (5 μg/kg) were 90.3% and 99.7%, respectively. Moreover, the “MPO concentration in the gastric mucosa” value is listed as 2.9±0.35 μg/g protein with myeloperoxidase (MPO) (2.5 μg/kg pretreatment) and 2.7±0.14 μg/g protein in the assay with myeloperoxidase (MPO) (5 μg/kg pretreatment). For the same compound, the “ulcer index (total length of gastric erosions)” value is given as 7.0±2.34 mm in assay [1] (2.5 μg/kg i.p. 30 min before aspirin 200 mg/kg + HCl, P<0.05) and 3.1±1.42 mm in assay [1] (5.0 μg/kg i.p. 30 min before aspirin 200 mg/kg + HCl, P<0.01). In addition, the entries for the “reduction of the increase in IL1-β above control levels caused by aspirin” value in the assay on IL-1β (2.5 μg/kg) and with IL-1β (5 μg/kg) were 64.0% and 97.2%, respectively. For the same compound, the “effect on the reduction of gastric PGE2 concentration induced by aspirin” value in the assay with PGE2 (rats, 5 μg/kg before aspirin 200 mg/kg, P>0.05 vs. aspirin alone) is listed as “did not interfere with the reduction of gastric PGE2 concentration induced by aspirin”. Further, the “increase in gastric acid output” value with gastric acid secretion (P<0.05) was “threefold”. The gastric acid output in the assay on gastric acid secretion (without compound 114, P<0.05) is 326 mmolq/3 h.
